Values joined by “and” are separate entries in the source; they are usually repeats but may differ in a detail not shown here. Equal entries are not always repeated.
Columns and labels:
[1] = excess molar enthalpy (molar enthalpy of mixing); xn = mol fraction of the nth substance listed; conditions: 100 kPa, Liquid, Calvet calorimetry
[2] = xn = mol fraction of the nth substance listed; conditions: 100 kPa, Liquid, Vibrating tube method

O=C1CCCO1 [γ-butyrolactone] + O
Conditions	excess molar enthalpy, [1]	mass density, [2]
288.15 K, x1 = 0.00118	-0.000825 kcal/mol	999.977 kg/m3
288.15 K, x1 = 0.001181	-0.000827 kcal/mol	999.978 kg/m3
288.15 K, x1 = 0.002358	-0.00163 kcal/mol	1000.85 kg/m3
288.15 K, x1 = 0.003533	-0.0024 kcal/mol	1001.72 kg/m3
288.15 K, x1 = 0.003534	-0.0024 kcal/mol	1001.72 kg/m3
288.15 K, x1 = 0.004705	-0.00315 kcal/mol	1002.58 kg/m3
288.15 K, x1 = 0.004706	-0.00315 kcal/mol	1002.59 kg/m3
288.15 K, x1 = 0.005874	-0.00388 kcal/mol	1003.43 kg/m3
288.15 K, x1 = 0.005876	-0.00387 kcal/mol	1003.43 kg/m3
288.15 K, x1 = 0.007042	-0.00458 kcal/mol	1004.27 kg/m3
288.15 K, x1 = 0.007044	-0.00458 kcal/mol	1004.28 kg/m3
298.15 K, x1 = 0.001179	-0.000598 kcal/mol	997.864 kg/m3
298.15 K, x1 = 0.002356	-0.00117 kcal/mol	998.672 kg/m3
298.15 K, x1 = 0.00353	-0.00171 kcal/mol	999.474 kg/m3
298.15 K, x1 = 0.004701	-0.00224 kcal/mol	1000.27 kg/m3
298.15 K, x1 = 0.005869	-0.00275 kcal/mol	1001.06 kg/m3
298.15 K, x1 = 0.007036	-0.00324 kcal/mol	1001.84 kg/m3
308.15 K, x1 = 0.001179	-0.000363 kcal/mol and -0.000361 kcal/mol	994.794 kg/m3 and 994.797 kg/m3
308.15 K, x1 = 0.002356	-0.0007 kcal/mol and -0.000698 kcal/mol	995.554 kg/m3 and 995.552 kg/m3
308.15 K, x1 = 0.00353	-0.00101 kcal/mol	996.301 kg/m3
308.15 K, x1 = 0.003531	-0.00101 kcal/mol	996.302 kg/m3
308.15 K, x1 = 0.004702	-0.00131 kcal/mol	997.038 kg/m3
308.15 K, x1 = 0.004703	-0.0013 kcal/mol	997.039 kg/m3
308.15 K, x1 = 0.00587	-0.00158 kcal/mol	997.774 kg/m3
308.15 K, x1 = 0.005871	-0.00158 kcal/mol	997.78 kg/m3
308.15 K, x1 = 0.007038	-0.00184 kcal/mol	998.505 kg/m3 and 998.496 kg/m3
318.15 K, x1 = 0.001181	-0.000116 kcal/mol and -0.000115 kcal/mol	990.926 kg/m3 and 990.925 kg/m3
318.15 K, x1 = 0.002359	-0.000209 kcal/mol and -0.000208 kcal/mol	991.631 kg/m3 and 991.634 kg/m3
318.15 K, x1 = 0.003534	-0.000283 kcal/mol and -0.000286 kcal/mol	992.336 kg/m3 and 992.333 kg/m3
318.15 K, x1 = 0.004706	-0.000346 kcal/mol	993.03 kg/m3
318.15 K, x1 = 0.004707	-0.000343 kcal/mol	993.03 kg/m3
318.15 K, x1 = 0.005875	-0.00039 kcal/mol	993.721 kg/m3
318.15 K, x1 = 0.005876	-0.000386 kcal/mol	993.713 kg/m3
318.15 K, x1 = 0.007043	-0.000418 kcal/mol	994.396 kg/m3
318.15 K, x1 = 0.007044	-0.000413 kcal/mol	994.396 kg/m3

CC1CCC(=O)O1 (stereo not drawn) [γ-valerolactone] + O
Conditions	excess molar enthalpy, [1]	mass density, [2]
288.15 K, x1 = 0.000948	-0.00117 kcal/mol	999.61 kg/m3
288.15 K, x1 = 0.001895	-0.0023 kcal/mol	1000.12 kg/m3
288.15 K, x1 = 0.00284	-0.00341 kcal/mol	1000.62 kg/m3
288.15 K, x1 = 0.003783	-0.00447 kcal/mol	1001.12 kg/m3
288.15 K, x1 = 0.004724	-0.00551 kcal/mol	1001.62 kg/m3
288.15 K, x1 = 0.005663	-0.00652 kcal/mol	1002.11 kg/m3
298.15 K, x1 = 0.000947	-0.000872 kcal/mol	997.5 kg/m3
298.15 K, x1 = 0.001893	-0.00171 kcal/mol	997.952 kg/m3 and 997.948 kg/m3
298.15 K, x1 = 0.002836	-0.00252 kcal/mol	998.397 kg/m3
298.15 K, x1 = 0.002837	-0.00253 kcal/mol	998.399 kg/m3
298.15 K, x1 = 0.003778	-0.00331 kcal/mol	998.844 kg/m3
298.15 K, x1 = 0.003779	-0.00331 kcal/mol	998.843 kg/m3
298.15 K, x1 = 0.004718	-0.00407 kcal/mol	999.282 kg/m3
298.15 K, x1 = 0.004719	-0.00406 kcal/mol	999.28 kg/m3
298.15 K, x1 = 0.005658	-0.00479 kcal/mol and -0.00481 kcal/mol	999.717 kg/m3 and 999.723 kg/m3
308.15 K, x1 = 0.000947	-0.000574 kcal/mol	994.435 kg/m3
308.15 K, x1 = 0.001892	-0.00113 kcal/mol	994.839 kg/m3
308.15 K, x1 = 0.001893	-0.00113 kcal/mol	994.839 kg/m3
308.15 K, x1 = 0.002835	-0.00165 kcal/mol	995.239 kg/m3
308.15 K, x1 = 0.002836	-0.00165 kcal/mol	995.239 kg/m3
308.15 K, x1 = 0.003777	-0.00215 kcal/mol	995.637 kg/m3
308.15 K, x1 = 0.003778	-0.00215 kcal/mol	995.634 kg/m3
308.15 K, x1 = 0.004716	-0.00262 kcal/mol	996.023 kg/m3
308.15 K, x1 = 0.004718	-0.00261 kcal/mol	996.023 kg/m3
308.15 K, x1 = 0.005656	-0.00306 kcal/mol and -0.00308 kcal/mol	996.412 kg/m3 and 996.415 kg/m3
318.15 K, x1 = 0.000946	-0.000275 kcal/mol	990.573 kg/m3
318.15 K, x1 = 0.000947	-0.000275 kcal/mol	990.572 kg/m3
318.15 K, x1 = 0.001891	-0.000526 kcal/mol	990.933 kg/m3
318.15 K, x1 = 0.001892	-0.000526 kcal/mol	990.933 kg/m3
318.15 K, x1 = 0.002835	-0.000758 kcal/mol	991.289 kg/m3
318.15 K, x1 = 0.003776	-0.00097 kcal/mol	991.639 kg/m3
318.15 K, x1 = 0.003777	-0.000966 kcal/mol	991.641 kg/m3
318.15 K, x1 = 0.004716	-0.00115 kcal/mol and -0.00114 kcal/mol	991.985 kg/m3 and 991.983 kg/m3
318.15 K, x1 = 0.005655	-0.00131 kcal/mol and -0.00132 kcal/mol	992.329 kg/m3 and 992.332 kg/m3

Reference: the NIST ThermoML archive (doi:10.1021/acs.jced.8b01146)
